The record followed here is the supplement of paper PMC10307832.

Common to all, as to experiment: relative viability (nuclei count vs DMSO), 5 days (fraction); higher = more cells survive
Compound in the experiment “Tipifarnib + Navitoclax”: Cn1cncc1[C@@](N)(c1ccc(Cl)cc1)c1ccc2c(c1)c(-c1cccc(Cl)c1)cc(=O)n2C [Tipifarnib] + CC1(C)CCC(c2ccc(Cl)cc2)=C(CN2CCN(c3ccc(C(=O)NS(=O)(=O)c4ccc(N[C@H](CCN5CCOCC5)CSc5ccccc5)c(S(=O)(=O)C(F)(F)F)c4)cc3)CC2)C1 [Navitoclax] (partner 0.5 µM)
A digest of the protocol: (§1)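 Lung cancer cell lines were pin-tool dosed in 1536-well plates on the day after seeding, with either a lone drug or a fixed anchor-drug dose plus five library-drug doses (not always all listed) in √10 steps. Nuclei were counted on 4× images after 5 days. Relative viability is the ratio of treated-well to vehicle-well nuclei counts, with each value a median of duplicate plates.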

Compound in the experiment “Tipifarnib + Trametinib”: Cn1cncc1[C@@](N)(c1ccc(Cl)cc1)c1ccc2c(c1)c(-c1cccc(Cl)c1)cc(=O)n2C [Tipifarnib] + CC(=O)Nc1cccc(-n2c(=O)n(C3CC3)c(=O)c3c(Nc4ccc(I)cc4F)n(C)c(=O)c(C)c32)c1 [Trametinib] (partner 0.02 µM)
A digest of the protocol: as §1

Compound in the experiment “Tipifarnib + Phenformin”: Cn1cncc1[C@@](N)(c1ccc(Cl)cc1)c1ccc2c(c1)c(-c1cccc(Cl)c1)cc(=O)n2C [Tipifarnib] + N=C(N)NC(=N)NCCc1ccccc1 [Phenformin] (partner 250 µM)
A digest of the protocol:
as §1

Compound in the experiment “Tipifarnib + Pemetrexed”: Cn1cncc1[C@@](N)(c1ccc(Cl)cc1)c1ccc2c(c1)c(-c1cccc(Cl)c1)cc(=O)n2C [Tipifarnib] + Nc1nc2[nH]cc(CCc3ccc(C(=O)N[C@@H](CCC(=O)O)C(=O)O)cc3)c2c(=O)[nH]1 [Pemetrexed] (partner 0.2 µM)
In short, it runs like this:
as §1

Consider LOU-NH91, for which the relative viability worked out at 0.682 in the experiment with Tipifarnib + Navitoclax (first compound 0.01 µM); 0.633 with Tipifarnib + Navitoclax (first compound 0.03162 µM); 0.663 in the experiment with Tipifarnib + Navitoclax (first compound 0.1 µM); 0.483 with Tipifarnib + Navitoclax (first compound 0.3162 µM); 0.398 in the experiment with Tipifarnib + Navitoclax (first compound 1 µM); 0.825 with Tipifarnib + Trametinib (first compound 0.01 µM). Moreover, the relative viability in the experiment with Tipifarnib + Trametinib (first compound 0.03162 µM) was 0.747; in the experiment with Tipifarnib + Trametinib (first compound 0.1 µM), 0.73; in the experiment with Tipifarnib + Trametinib (first compound 0.3162 µM), 0.69; in the experiment with Tipifarnib + Trametinib (first compound 1 µM), 0.723; in the experiment with Tipifarnib + Phenformin (first compound 0.01 µM) it was 0.652; with Tipifarnib + Phenformin (first compound 0.03162 µM) it was 0.589. Further, the relative viability in the experiment with Tipifarnib + Phenformin (first compound 0.1 µM) amounted to 0.688; with Tipifarnib + Phenformin (first compound 0.3162 µM), 0.569; with Tipifarnib + Phenformin (first compound 1 µM) it was 0.414; with Tipifarnib + Pemetrexed (first compound 0.01 µM), 0.347; with Tipifarnib + Pemetrexed (first compound 0.03162 µM) it was 0.409; in the experiment with Tipifarnib + Pemetrexed (first compound 0.1 µM) it was 0.412. Also, the relative viability with Tipifarnib + Pemetrexed (first compound 0.3162 µM) came out at 0.408; in the experiment with Tipifarnib + Pemetrexed (first compound 1 µM), 0.459.

With NCI-H2347, the relative viability with Tipifarnib + Navitoclax (first compound 0.01 µM) was found to be 0.782; with Tipifarnib + Navitoclax (first compound 0.03162 µM) it was 0.576; in the experiment with Tipifarnib + Navitoclax (first compound 0.1 µM) it was 0.643; with Tipifarnib + Navitoclax (first compound 0.3162 µM) it was 0.627; with Tipifarnib + Navitoclax (first compound 1 µM) it was 0.598; with Tipifarnib + Trametinib (first compound 0.01 µM), 0.308. The relative viability turned out to be 0.283 with Tipifarnib + Trametinib (first compound 0.03162 µM); 0.269 with Tipifarnib + Trametinib (first compound 0.1 µM); 0.261 with Tipifarnib + Trametinib (first compound 0.3162 µM); 0.293 with Tipifarnib + Trametinib (first compound 1 µM); 0.474 with Tipifarnib + Phenformin (first compound 0.01 µM); 0.405 with Tipifarnib + Phenformin (first compound 0.03162 µM). Further, the relative viability with Tipifarnib + Phenformin (first compound 0.1 µM) was 0.501; with Tipifarnib + Phenformin (first compound 0.3162 µM) it was 0.318; with Tipifarnib + Phenformin (first compound 1 µM) it was 0.315; in the experiment with Tipifarnib + Pemetrexed (first compound 0.01 µM) it was 0.455; with Tipifarnib + Pemetrexed (first compound 0.03162 µM) it was 0.446; with Tipifarnib + Pemetrexed (first compound 0.1 µM) it was 0.446. The relative viability with Tipifarnib + Pemetrexed (first compound 0.3162 µM) was 0.406; with Tipifarnib + Pemetrexed (first compound 1 µM), 0.398.

NCI-H2126: the relative viability was 0.888 with Tipifarnib + Navitoclax (first compound 0.01 µM); 0.822 in the experiment with Tipifarnib + Navitoclax (first compound 0.03162 µM); 0.845 in the experiment with Tipifarnib + Navitoclax (first compound 0.1 µM); 0.74 with Tipifarnib + Navitoclax (first compound 0.3162 µM); 0.709 with Tipifarnib + Navitoclax (first compound 1 µM); 0.585 with Tipifarnib + Trametinib (first compound 0.01 µM). Also, the relative viability came out at 0.496 in the experiment with Tipifarnib + Trametinib (first compound 0.03162 µM); 0.528 in the experiment with Tipifarnib + Trametinib (first compound 0.1 µM); 0.515 in the experiment with Tipifarnib + Trametinib (first compound 0.3162 µM); 0.482 in the experiment with Tipifarnib + Trametinib (first compound 1 µM); 0.56 in the experiment with Tipifarnib + Phenformin (first compound 0.01 µM); 0.532 in the experiment with Tipifarnib + Phenformin (first compound 0.03162 µM). For the same cell line, the relative viability turned out to be 0.517 with Tipifarnib + Phenformin (first compound 0.1 µM); 0.49 with Tipifarnib + Phenformin (first compound 0.3162 µM); 0.435 with Tipifarnib + Phenformin (first compound 1 µM); 0.666 with Tipifarnib + Pemetrexed (first compound 0.01 µM); 0.691 in the experiment with Tipifarnib + Pemetrexed (first compound 0.03162 µM); 0.676 in the experiment with Tipifarnib + Pemetrexed (first compound 0.1 µM). Besides, the relative viability with Tipifarnib + Pemetrexed (first compound 0.3162 µM) was 0.642; in the experiment with Tipifarnib + Pemetrexed (first compound 1 µM), 0.503.

As to HCC-827, the relative viability in the experiment with Tipifarnib + Navitoclax (first compound 0.01 µM) came out at 0.941; in the experiment with Tipifarnib + Navitoclax (first compound 0.03162 µM), 0.95; with Tipifarnib + Navitoclax (first compound 0.1 µM) it was 0.793; in the experiment with Tipifarnib + Navitoclax (first compound 0.3162 µM), 0.666; with Tipifarnib + Navitoclax (first compound 1 µM), 0.66; in the experiment with Tipifarnib + Trametinib (first compound 0.01 µM) it was 0.529. Also, the relative viability is 0.598 with Tipifarnib + Trametinib (first compound 0.03162 µM); 0.481 in the experiment with Tipifarnib + Trametinib (first compound 0.1 µM); 0.479 in the experiment with Tipifarnib + Trametinib (first compound 0.3162 µM); 0.504 in the experiment with Tipifarnib + Trametinib (first compound 1 µM); 0.425 in the experiment with Tipifarnib + Phenformin (first compound 0.01 µM); 0.413 in the experiment with Tipifarnib + Phenformin (first compound 0.03162 µM). In addition, the relative viability in the experiment with Tipifarnib + Phenformin (first compound 0.1 µM) came to 0.406; with Tipifarnib + Phenformin (first compound 0.3162 µM) it was 0.34; with Tipifarnib + Phenformin (first compound 1 µM), 0.376; with Tipifarnib + Pemetrexed (first compound 0.01 µM), 0.273; in the experiment with Tipifarnib + Pemetrexed (first compound 0.03162 µM), 0.32; in the experiment with Tipifarnib + Pemetrexed (first compound 0.1 µM), 0.286. The relative viability with Tipifarnib + Pemetrexed (first compound 0.3162 µM) amounted to 0.25; with Tipifarnib + Pemetrexed (first compound 1 µM), 0.275.

For NCI-H3122, the relative viability with Tipifarnib + Navitoclax (first compound 0.01 µM) came to 1.02; with Tipifarnib + Navitoclax (first compound 0.03162 µM), 0.95; with Tipifarnib + Navitoclax (first compound 0.1 µM) it was 0.857; with Tipifarnib + Navitoclax (first compound 0.3162 µM) it was 0.675; with Tipifarnib + Navitoclax (first compound 1 µM), 0.782; with Tipifarnib + Trametinib (first compound 0.01 µM), 0.244. For the same cell line, the relative viability with Tipifarnib + Trametinib (first compound 0.03162 µM) was determined as 0.215; with Tipifarnib + Trametinib (first compound 0.1 µM), 0.213; in the experiment with Tipifarnib + Trametinib (first compound 0.3162 µM), 0.211; with Tipifarnib + Trametinib (first compound 1 µM) it was 0.185; with Tipifarnib + Phenformin (first compound 0.01 µM), 0.413; with Tipifarnib + Phenformin (first compound 0.03162 µM), 0.419. The relative viability in the experiment with Tipifarnib + Phenformin (first compound 0.1 µM) came out at 0.419; with Tipifarnib + Phenformin (first compound 0.3162 µM), 0.356; with Tipifarnib + Phenformin (first compound 1 µM), 0.228; with Tipifarnib + Pemetrexed (first compound 0.01 µM) it was 0.205; with Tipifarnib + Pemetrexed (first compound 0.03162 µM) it was 0.204; with Tipifarnib + Pemetrexed (first compound 0.1 µM), 0.199. Also, the relative viability with Tipifarnib + Pemetrexed (first compound 0.3162 µM) and in the experiment with Tipifarnib + Pemetrexed (first compound 1 µM) was 0.188 each time.

For HOP-62, the relative viability in the experiment with Tipifarnib + Navitoclax (first compound 0.01 µM) is 0.937; with Tipifarnib + Navitoclax (first compound 0.03162 µM) it was 0.55; with Tipifarnib + Navitoclax (first compound 0.1 µM), 0.377; with Tipifarnib + Navitoclax (first compound 0.3162 µM) it was 0.233; in the experiment with Tipifarnib + Navitoclax (first compound 1 µM), 0.33; with Tipifarnib + Trametinib (first compound 0.01 µM), 0.375. The relative viability with Tipifarnib + Trametinib (first compound 0.03162 µM) was determined as 0.297; with Tipifarnib + Trametinib (first compound 0.1 µM), 0.258; with Tipifarnib + Trametinib (first compound 0.3162 µM), 0.261; in the experiment with Tipifarnib + Trametinib (first compound 1 µM) it was 0.282; in the experiment with Tipifarnib + Phenformin (first compound 0.01 µM) it was 0.573; with Tipifarnib + Phenformin (first compound 0.03162 µM), 0.418. Also, the relative viability was 0.403 with Tipifarnib + Phenformin (first compound 0.1 µM); 0.353 with Tipifarnib + Phenformin (first compound 0.3162 µM); 0.347 with Tipifarnib + Phenformin (first compound 1 µM); 0.233 with Tipifarnib + Pemetrexed (first compound 0.01 µM); 0.297 with Tipifarnib + Pemetrexed (first compound 0.03162 µM); 0.276 with Tipifarnib + Pemetrexed (first compound 0.1 µM). The relative viability came to 0.208 with Tipifarnib + Pemetrexed (first compound 0.3162 µM) and 0.222 with Tipifarnib + Pemetrexed (first compound 1 µM).

Turning to HCC-44, the relative viability with Tipifarnib + Navitoclax (first compound 0.01 µM) was determined as 1.06; with Tipifarnib + Navitoclax (first compound 0.03162 µM) it was 0.944; in the experiment with Tipifarnib + Navitoclax (first compound 0.1 µM), 0.784; with Tipifarnib + Navitoclax (first compound 0.3162 µM), 0.726; with Tipifarnib + Navitoclax (first compound 1 µM), 0.696; with Tipifarnib + Trametinib (first compound 0.01 µM) it was 0.992. The relative viability with Tipifarnib + Trametinib (first compound 0.03162 µM) was found to be 0.942; in the experiment with Tipifarnib + Trametinib (first compound 0.1 µM) it was 0.908; with Tipifarnib + Trametinib (first compound 0.3162 µM), 0.781; in the experiment with Tipifarnib + Trametinib (first compound 1 µM) it was 0.891; with Tipifarnib + Phenformin (first compound 0.01 µM), 0.214; in the experiment with Tipifarnib + Phenformin (first compound 0.03162 µM), 0.107. In addition, the relative viability was 0.166 with Tipifarnib + Phenformin (first compound 0.1 µM); 0.18 with Tipifarnib + Phenformin (first compound 0.3162 µM); 0.109 with Tipifarnib + Phenformin (first compound 1 µM); 0.619 with Tipifarnib + Pemetrexed (first compound 0.01 µM); 0.615 with Tipifarnib + Pemetrexed (first compound 0.03162 µM); 0.625 with Tipifarnib + Pemetrexed (first compound 0.1 µM). In addition, the relative viability amounted to 0.589 with Tipifarnib + Pemetrexed (first compound 0.3162 µM) and 0.604 with Tipifarnib + Pemetrexed (first compound 1 µM).
